Earlier results as cited in patent publication US9303023B2, “Pyrazole and imidazole derivatives useful as orexin antagonists” (ACTELION PHARMACEUTICALS LTD., priority 2011, dated 2016).

Assays:
[1] = rat model
[2] = rat
[3] = rat fear-potentiated startle paradigm
amyloid-beta (Aβ) = settings: after acute sleep restriction, amyloid precursor protein transgenic mice
[4] = fasted hungry rats exposed to food odors
[5] = mouse model of depression, administered chronically
[6] = in vivo

SMILES | memory function [1] | alertness (active wake and locomotion) [2] | time spent in both REM and NREM sleep [2] | activity in conditioned fear model [3] | brain levels of amyloid-beta (Aβ) and Aβ plaque deposition (amyloid-beta (Aβ)) | natural activation induced by orexin A [4] | antidepressant-like activity [5] | activity in animal model related to addictions [6]
CNC(=O)[C@@H](c1ccccc1)N1CCc2cc(OC)c(OC)cc2[C@@H]1CCc1ccc(C(F)(F)F)cc1 [(2R)-2-{(1S)-6,7-dimethoxy-1-[2-(4-trifluoromethyl-phenyl)-ethyl]-3,4-dihydro-1H-isoquinolin-2-yl}-N-methyl-2-phenyl-acetamide] | enhance memory function | decrease alertness | dose-dependently increase | active | decreased | attenuate the natural activation induced by orexin A | induce antidepressant-like activity | –
COc1ccc(C[C@H]2c3cc(OC)c(OC)cc3CCN2[C@@H](C(=O)NC(C)C)c2ccccc2)cc1OC [(R)-2-[(S)-1-(3,4-Dimethoxy-benzyl)-6,7-dimethoxy-3,4-dihydro-1H-isoquinolin-2-yl]-N-isopropyl-2-phenyl-acetamide] | – | – | – | active | – | – | – | active
